# From patent US20260001914A1, “MACROCYCLIC PEPTIDES TARGETING KRAS” (Merck Sharp & Dohme LLC, priority 2022, published 2026)
# *1 amine or outer side, *2 acyl side, *3 side chain or, on linkers, in order; H or OH if unused. Where a SMILES comes first, the peptide text is derived from it. Bridges are numbered along the chain shown (N, C = ends). [ ]: non-standard residue; d: D form. cBu(1-CO,cis-3-CH2NH) = O=C([C@H]1C[C@@H](CN[*:1])C1)[*:2]; NMeNva(5-imidazol-1-yl) = CN[C@@H](CCCn1ccnc1)C(=O)O; X59 = O=C([C@H](Cc1ccc(CN2CCCC2)cc1)N[*:1])[*:2]; Ala(pyrimidin-5-yl) = N[C@@H](Cc1cncnc1)C(=O)O; NMe3Pal(6-Me) = CN[C@@H](Cc1ccc(C)nc1)C(=O)O; X67 = O=C([C@H](Cc1ncc(Cl)cn1)N[*:1])[*:2]; X26 = Cn1cc(C[C@H](N[*:1])C(=O)[*:2])cn1; X13 = O=C([C@H](Cc1ccncc1F)N[*:1])[*:2]; X30 = O=C([C@H](Cc1ncccc1F)N[*:1])[*:2]; Phe(2-F) = N[C@@H](Cc1ccccc1F)C(=O)O; Gly(octyl) = CCCCCCCC[C@H](N)C(=O)O; NMe3Pal = CN[C@@H](Cc1cccnc1)C(=O)O; X1 = O=C(C12CC(CN[*:1])(C1)C2)[*:2]; NMeOrn(Me) = CNCCC[C@H](NC)C(=O)O; Ala(cPr) = N[C@@H](CC1CC1)C(=O)O; NMeF = CN[C@@H](Cc1ccccc1)C(=O)O; PhLac = O=C(O)[C@@H](O)Cc1ccccc1; 3Pal = N[C@@H](Cc1cccnc1)C(=O)O; Ahp(2) = CCCCC[C@H](N)C(=O)O; Cba = N[C@@H](CC1CCC1)C(=O)O; hLeu = CC(C)CC[C@H](N)C(=O)O; αMeC = C[C@](N)(CS)C(=O)O; NMeA = CN[C@@H](C)C(=O)O; Nle = CCCC[C@H](N)C(=O)O
# Target: KRAS-G12D protein (Homo sapiens, UniProt P01116, G12D)
# Assay: SOS-mediated nucleotide exchange assay (BODIPY-GDP / Tb-streptavidin TR-FRET)
# Type: biochemical
# KRAS-G12D protein, sequence (P01116 1-188 isoform P01116-2 G12D): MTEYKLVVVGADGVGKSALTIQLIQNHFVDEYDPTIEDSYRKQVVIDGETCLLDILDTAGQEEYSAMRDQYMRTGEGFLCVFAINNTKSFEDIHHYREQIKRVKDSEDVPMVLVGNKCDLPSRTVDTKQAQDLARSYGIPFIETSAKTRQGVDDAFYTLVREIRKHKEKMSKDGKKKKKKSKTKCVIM
row,Compound,EC50
1,"CCCC[C@@H]1NC(=O)[C@H](Cc2cncnc2)NC(=O)[C@H](C)N(C)C(=O)[C@H](Cc2ccccc2)OC(=O)C23CC(CNC(=O)[C@H](Cc4ccccc4)N(C)C(=O)[C@H](CCCC)NC(=O)[C@H](Cc4ncccc4F)NC1=O)(C2)C3 [compound 229, cyclo(FLac-NMeA-PyrimAla-Nle-2Pal6F-Nle-NMeF-amBCP)] (cyclo([NMeA][Ala(pyrimidin-5-yl)][Nle][X30][Nle][NMeF][X1][PhLac]))",559 nM
2,"CCCC[C@@H]1NC(=O)[C@H](Cc2ccc(CN3CCCC3)cc2)NC(=O)[C@H](CCCn2ccnc2)N(C)C(=O)[C@H](Cc2ccccc2)NC(=O)[C@H]2C[C@@H](CNC(=O)[C@H](Cc3cccnc3)N(C)C(=O)[C@H](CCCC)NC(=O)[C@H](Cc3ccccc3F)NC1=O)C2 [compound 266, cyclo(F-NMeNvalmid-Phe4cPyrr-Nle-Phe2F-Nle-NMe3Pal-c3amCb1c)] (cyclo(F[NMeNva(5-imidazol-1-yl)][X59][Nle][Phe(2-F)][Nle][NMe3Pal][cBu(1-CO,cis-3-CH2NH)]))",215 nM
3,"CCCC[C@@H]1NC(=O)[C@H](Cc2ncc(Cl)cn2)NC(=O)[C@H](C)N(C)C(=O)[C@H](Cc2ccccc2)OC(=O)C23CC(CNC(=O)[C@H](Cc4ccccc4)N(C)C(=O)[C@H](CCCC)NC(=O)[C@H](Cc4ccccc4F)NC1=O)(C2)C3 [compound 321, cyclo(FLac-NMeA-Ala2Pyrim5Cl-Nle-Phe2F-Nle-NMeF-amBCP)] (cyclo([NMeA][X67][Nle][Phe(2-F)][Nle][NMeF][X1][PhLac]))",617 nM
4,"CCCCCCCC[C@@H]1NC(=O)[C@H](Cc2ccc(O)cc2)NC(=O)[C@H](CC(C)C)NC(=O)[C@H](Cc2ccc(O)cc2)NC(=O)[C@H](CCCNC(=N)N)NC(=O)[C@H](Cc2ccccc2)NC(=O)CSC[C@@H](C(=O)NCC(=O)N[C@@H](CCCCN)C(=O)N[C@@H](CCCCN)C(N)=O)NC(=O)[C@H](Cc2ccccc2)N(C)C1=O [compound 59, cyclo(-F-R-Y-L-Y-Aca-NMeF-C2-ClAc)] ({CH2CO}-FRYLY[Gly(octyl)][NMeF]CGKK-NH2; thioether N-8)",812 nM
5,"CC(C)CC[C@@H]1NC(=O)[C@H](Cc2ccncc2F)NC(=O)[C@H](CC2CC2)NC(=O)[C@H](Cc2cncnc2)NC(=O)[C@H](C)N(C)C(=O)[C@H](Cc2ccccc2)OC(=O)C23CC(CNC(=O)[C@H](Cc4ccccc4)N(C)C1=O)(C2)C3 [compound 214, cyclo(FLac-NMeA-PyrimAla-cPrA-4Pal2F-hL-NMeF-amBCP)] (cyclo([Ala(cPr)][X13][hLeu][NMeF][X1][PhLac][NMeA][Ala(pyrimidin-5-yl)]))",2.69 nM
6,"CCCC[C@@H]1NC(=O)[C@H](Cc2cnn(C)c2)NC(=O)[C@H](C)N(C)C(=O)[C@H](Cc2ccccc2)OC(=O)C23CC(CNC(=O)[C@H](Cc4cccnc4)N(C)C(=O)[C@H](CCCC)NC(=O)[C@H](Cc4ccccc4F)NC1=O)(C2)C3 [compound 400, cyclo(FLac-NMeA-Ala4PyzlMe-Nle-Phe2F-Nle-NMe3Pal-amBCP)] (cyclo([NMe3Pal][X1][PhLac][NMeA][X26][Nle][Phe(2-F)][Nle]))",14 nM
7,"CCCC[C@@H]1NC(=O)[C@H](Cc2cccnc2)NC(=O)[C@H](C)N(C)C(=O)[C@H](Cc2ccccc2)NC(=O)CSC[C@@](C)(C(N)=O)NC(=O)[C@H](Cc2ccccc2)N(C)C(=O)[C@H](CCCC)NC(=O)[C@H](Cc2ccccc2F)NC1=O [compound 159, cyclo(F-NMeA-3Pal-Nle-Phe2F-Nle-NMeF-aMeCl-ClAc)] ({CH2CO}-F[NMeA][3Pal][Nle][Phe(2-F)][Nle][NMeF][αMeC]-NH2; thioether N-8)",110 nM
8,"CCCCC[C@@H]1NC(=O)[C@H](Cc2ccc(OC)cc2)NC(=O)[C@H](CC2CCC2)NC(=O)[C@H](Cc2cncnc2)NC(=O)[C@H](CCCNC)N(C)C(=O)[C@H](Cc2ccccc2)NC(=O)CSC[C@@](C)(C(N)=O)NC(=O)[C@H](Cc2ccc(C)nc2)N(C)C1=O [compound 394, cyclo(F-NMeOmMe-PyrimAla-cBuA-TyrOMe-Ahp-NMe3Pal4Me-aMeCl-ClAc)] ({CH2CO}-F[NMeOrn(Me)][Ala(pyrimidin-5-yl)][Cba]Y(Me)[Ahp(2)][NMe3Pal(6-Me)][αMeC]-NH2; thioether N-8)",65.8 nM
